In US20200308624A1, “Phosphate and tensin homolog (PTEN) for the detection of autoimmune diseases or conditions” (Universitätsmedizin der Johannes Gutenberg-Universität Mainz, priority 2019, published 2020):

Key:
Format in all cases: cell-based, human
[1] = test system: Treg-resistant T cells from MS patients; assay: Suppressor assay: MS T cells cocultured with Treg, proliferation by 3H-Tdr incorporation; conditions: anti-CD3 mAb stimulation, FIG. 1E, n=4
Method: A) PBMC from therapy-naïve MS patients (red) or HC (black) were cocultured with Treg and stimulated with anti-CD3 mAb. T cell proliferation was determined by ^3H-Tdr incorporation on day three. Box plots show percentage of suppression in presence of Treg (ratio 4:1) normalized to proliferation of T cells alone as median with interquartile range (n=15), P-values relative to T cells of HC are shown, to avoid familywise error rate bonferroni correction was used p*. B) C) IL-6R expression within CD3+ T cells of PBMC from HC or MS was determined by flow cytometry. One representative of eight independent experiments is shown. D) PKB/c-Akt phosphorylation was determined by flow cytometry within CD3^+ T cells of MS (red) or HC (black). Six different experiments are shown, p-values relative to MFI of HC. E) MS T cells with Treg were stimulated with anti-CD3 mAb without (circle) or with (quadrats) anti-IL-6R mAb or (triangles) Akt-VIII inhibitor. Each dot represents percentage of proliferation with Treg normalized to T cells alone (n=4), p-values to MS T cells.
CD4^+CD25^− T cells (10^5 cells/well, 96 well plate, flat bottom) were stimulated with 0.1 μg/ml anti-CD3 mAb (OKT-3) and cultured in presence or absence of different Treg ratios. CD3-depleted PBMC (5×10^4/well) were used as costimulus. […] T cell proliferation was measured by ^3H-Tdr incorporation using a liquid […] counter. […]

[2] = test system: CD4+CD25- T cells from healthy donors; assay: Suppressor assay: T cells and Treg cocultured in presence of IL-6 (3H-Tdr); conditions: T cells from healthy donors incubated overnight with IL-6 (500 ng/ml)
Excerpt: In addition to PKB, also IL-6 and its signaling pathway play a crucial role in whether T cells from MS patients respond to suppression by Treg or not. In the context of autoimmune diseases, it has been investigated how the increased IL-6 production observed in MS can affect PTEN protein expression.
(§1) FIG. 5: IL-6 mediates Treg resistance by inducing the phosphorylation of PKB/c-Akt and downregulation of PTEN in activated T cells A) T cells and Treg were cocultured in presence (grey) or absence (black) of IL-6 and stimulated with anti-CD3 mAb. […] B) PKB/c-Akt phosphorylation was analyzed by flow cytometry within T cells after 24 h of culture with (black) or without IL-6 (grey). C) T cells from HC were incubated for 24 h without IL-6 (black) or with IL-6 (grey) or IL-6 and anti-IL-6R mAb (striped). Shown is the mean fluorescence intensity (MFI) of pPKB/c-Akt in T cells (n=5). D) PBMC from HC were cultured for 24 h in the presence or absence of 500 ng/ml IL-6. […] Total proteins were isolated and PTEN protein expression was analyzed via western blot.
CD4^+CD25^− T cells (10^5 cells/well, 96 well plate, flat bottom) were stimulated with 0.1 μg/ml anti-CD3 mAb (OKT-3) and cultured in presence or absence of different Treg ratios. […] T cell proliferation was measured by ^3H-Tdr incorporation using a liquid […] counter. […]

PKB/c-Akt = PKB/c-Akt phosphorylation in T cells after culture with IL-6 (flow cytometry)
Method: as §1
Flow cytometric analysis was performed using the following antibodies: anti-human CD3 (UCHT1), anti-human CD4 (RPA-T4), anti-human CD8 (SK1), anti-human CD14 (M5E2), anti-human CD19 (HIB19), all from BD Pharmingen, anti-human CD25 (4E3), anti-human CD127 (MB15-18C9), all from Miltenyi Biotec. […] Cell viability during flow cytometric analysis was determined using 7-AAD and eFluor506 (eBioscience). […] Stained cells were measured on LSRII with FACS Diva Software (BD Bioscience) or FACSVia™ and data was analyzed with BD FACSVia Research Software (BD Biosciences). […]

PTEN protein = PTEN protein expression in IL-6-treated activated CD4+ T cells (Western blot); conditions: IL-6-treated (500 ng/ml, 24 h) T cells, 2 hours after polyclonal activation, compared to untreated controls
Method: FIG. 5: IL-6 mediates Treg resistance by inducing the phosphorylation of PKB/c-Akt and downregulation of PTEN in activated T cells A) T cells and Treg were cocultured in presence (grey) or absence (black) of IL-6 and stimulated with anti-CD3 mAb. […] B) PKB/c-Akt phosphorylation was analyzed by flow cytometry within T cells after 24 h of culture with (black) or without IL-6 (grey). C) T cells from HC were incubated for 24 h without IL-6 (black) or with IL-6 (grey) or IL-6 and anti-IL-6R mAb (striped). Shown is the mean fluorescence intensity (MFI) of pPKB/c-Akt in T cells (n=5). D) PBMC from HC were cultured for 24 h in the presence or absence of 500 ng/ml IL-6. CD4^+ T cells were isolated, left unstimulated or were activated with anti-CD3 and anti-CD28 mAb for two hours. Total proteins were isolated and PTEN protein expression was analyzed via western blot.
Cell pellets were lysed in Cell Extraction Buffer (Invitrogen) supplemented with 1 mM PMSF (Invitrogen) and Protease Inhibitor Cocktail (Sigma) for 30 min on ice with vortexing at 10 min intervals. Total protein concentration of cell lysates was determined with Micro BCA Protein Assay Kit (Thermo Fisher Scientific) according to manufacturer's protocol. Protein separation was performed using the NuPAGE® Bis-Tris electrophoresis system (Thermo Fisher Scientific). […] Western blots were analyzed and quantified with ImageJ software.

Compound	responsiveness towards Treg-mediated suppression [1]	Treg resistance [2]	phosphorylation of protein kinase B (PKB/c-Akt; T cells from healthy donors, 24 h with IL-6)	PTEN protein expression (PTEN protein)	IL-6-induced hyperactivation of PKB (PKB/c-Akt; T cells from HC, 24 h with IL-6 and anti-IL-6R mAb, n=5)
O=c1[nH]c2ccccc2n1C1CCN(Cc2ccc(-c3nc4cc5nc[nH]c5cc4nc3-c3ccccc3)cc2)CC1 [Akt VIII]	restores responsiveness towards Treg-mediated suppression	–	–	–	–
IL-6: cytokine IL-6 (ImmunoTools) added to cultures	–	induce Treg resistance	increased phosphorylation of protein kinase B	significant decrease in PTEN protein expression	–
Tocilizumab [anti-IL-6 receptor antibody]	restores responsiveness towards Treg-mediated suppression	–	–	–	abolished this effect
